Experiment [1] concerns E. hormaechei (ATCC700323). The experiment is described as follows: microbe, parasite or virus in culture. In kind it is cell-based, Enterobacter hormaechei. The settings on record: ATCC700323, 18 h. The procedure: (§1) The minimum inhibitory concentration (MIC) of the Brevinin-1BW was measured in 96-well microtiter plates according to the Clinical and Laboratory Standards Institute (CLSI). The activated strains were treated with Mueller Hinton Agar (MHA) solid medium. Single colonies were picked and expanded to the logarithmic growth phase, and the solution was diluted to 2 × 10^6 CFU/mL using the McFarland turbidity standard. The MIC was determined with the two-fold dilution method. Briefly, 50 μL of Mueller Hinton (MH) medium was added to a 96-well plate in advance. Then, 50 μL of AMP solution was added to the first well, and 50 μL was pipetted into the next well after mixing using a row gun, while 50 μL was discarded from the last well. Final concentrations of Brevinin-1BW were 100, 50, 25, 12.5, 6.25, and 3.125 μg/mL. A 50 μL volume of the diluted bacterial solution was added, and the final concentration of the bacterial solution was 1 × 10^6 CFU/mL. This was then placed into a 37 °C incubator for 18 h until the next day to observe the degree of turbidity of the 96-well plate and measure the absorbance of the wells at 600 nm with a multifunctional microplate reader (SpectraMax iD5, Molecular Devices, Sunnyvale, CA, USA). The absence of turbidity and the measured concentration of absorbance being less than the opposing group was taken as the MIC. The positive control used ampicillin at the same final concentration as Brevinin-1BW, the negative control used 50 μL of MH medium mixed with 50 μL of 2 × 10^6 CFU/mL bacterial solution, and the blank contained only 100 μL of MH medium. Three replicate wells were set up for each experiment, and each experiment was repeated three times. The MIC and all concentrations above the MIC of bacterial solution coated on MHA solid medium were placed into 37 °C incubator incubation for 18 h. The lowest concentration resulting in no colony growth was taken as the minimum bactericidal concentration (MBC).

A short description of another experiment: ABTS radical scavenging. The settings on record: at 200 μg/mL, room temperature, 6 min, absorbance 734 nm. On the procedure: ABTS^+ scavenging capacity: A 7 mM ABTS (Med Chem Express, NJ, USA) solution and 140 mM potassium persulfate (Aladdin, Shanghai, China) solution were prepared. A 5 mL volume of ABTS was taken and mixed with 88 μL of potassium persulfate before being placed in the dark at room temperature for 14 h to form the ABTS radical stock solution. The ABTS radical stock solution was then diluted with 95% ethanol by volume to reach an OD734 nm = 0.7. Then, 10 μL of Brevinin-1BW solution was mixed with 50 μL of ABTS radical stock solution, and the resulting absorbance was measured at 734 nm for 6 min at room temperature, which was recorded as A1. The absorbance of 95% ethanol was measured as A2. The same concentration of vitamin C was used as the positive control. The clearance was calculated according to the following equation: ABTS^+ Clearance Rate%=(A2−A1)/A2×100

The subject of a further experiment is TNF-α. The experiment is described as follows: Cytokine release in LPS-treated RAW264.7 cells, ELISA. In kind it is cell-based, mouse. On the procedure: (§2) RAW 264.7 mouse macrophages were cultured in DMEM medium (Gibco, New York, NY, USA). containing 10% FBS (TransGen Biotech, Beijing, China) and 1% penicillin-streptomycin (Biosharp, Guangzhou, China) and were seeded into 6-well plates at a cell density of 10^5 cells/mL. After cell adhesion, 1 μg/mL LPS (Solarbio, Beijing, China) and different concentrations of Brevinin-1BW (0, 1, 2, 3, and 4 μg/mL) were incubated for 24 h. Culture supernatants were collected, and the contents of TNFα, IL-6, and IL-1β were determined with enzyme-linked immunosorbent assay (BOSTER, Wuhan, China). All cells were washed twice with precooled PBS, total cellular RNA was extracted using the RNAsimple Total RNA Extraction kit (TIANGEN, Beijing, China), and total RNA concentration and purity were determined using a Thermo Fisher NanoDropOne nucleic acid protein spectrophotometer. HiScript II 1st Strand cDNA Synthesis Kit (Vazyme, Nanjing, China) synthesized cDNA, and we performed real-time PCR using Hieff® qPCR SYBR Green Master Mix (No Rox) (YEASEN, Shanghai, China). The primer sequences for Beta-actin (β-Actin), interleukins (IL-6, IL-1β), tumor necrosis factor (TNF-α), and nitric oxide synthase (iNOS) are shown in Table 6. Cells incubated without peptide and/or LPS were used as negative control. All experiments were repeated three times.
(In an ELISA, binding on a coated surface is turned into a signal by an enzyme label.)

Another experiment has as its system IL-1β. The description is as above. In kind it is cell-based, mouse. The settings on record: 4 μg/mL peptide, 1 μg/mL LPS, RAW264.7, 24 h, ELISA of supernatant. On the procedure:
as §2

The next experiment has as its system IL-6. The experiment is described as above. It is filed as cell-based, mouse. The procedure: as §2
Experiment [2] concerns S. saprophytics (ATCCBAA750). Nature of the experiment: microbe, parasite or virus in culture. It is filed as cell-based, Staphylococcus saprophyticus. Conditions: ATCCBAA750, 18 h. On the procedure: as §1
In a further experiment the test system is S. aureus (ATCC 25923). In kind it is cell-based, Staphylococcus aureus. Conditions: ATCC 25923, 1 h. On the procedure:
The temperature, serum, and pH stability of antimicrobial peptide Brevinin-1BW was investigated. S. aureus (ATCC 25923) was used to determine its stability. The antimicrobial peptide solution was prepared and placed at −20 °C, 4 °C, 37 °C, 60 °C, and 100 °C for 1 h. The MIC was measured with 96-well plate method to detect the effect of temperature. […] The pH stability was achieved by inoculating S. aureus into MH medium and culturing them with shaking to reach the logarithmic growth phase. This was then diluted to 10^6 CFU/mL. Brevinin-1BW was incubated in PBS at various pH values, pH = 2 or 12, for 1 h at 37 °C. The minimal inhibitory concentrations (MIC) of the peptides were then determined. All the above experiments were repeated more than three times.

For the next experiment, the system named is IL-1β mRNA. The experiment is described as follows: mRNA expression in LPS-treated RAW264.7 cells, real-time PCR. It is filed as cell-based, mouse. On the procedure:
as §2
On the technique in general: Real-time PCR tracks product formation cycle by cycle.

The test system of a further experiment is TNF-α mRNA. Described as above. It is filed as cell-based, mouse. The procedure: as §2
In a further experiment the test system is IL-6 mRNA. The description is as above. It is filed as cell-based, mouse. The procedure: as §2
Another experiment concerns iNOS mRNA. Described as above. It is filed as cell-based, mouse. The procedure:
as §2

In experiment [3] the test system is K. pneumoniae (ATCC700603). The experiment is described as follows: microbe, parasite or virus in culture. In kind it is cell-based, Klebsiella pneumoniae. The settings on record: ATCC700603, 18 h. On the procedure:
as §1

Converted amounts (≈) assume the structure as drawn. Like-named read-outs stand apart in the source and are kept apart here. Positions of bridges follow the written chain, without caps; N, C: chain ends. Residues, ends and D or L forms follow the SMILES beside them. Some results are limits rather than exact numbers.

The values that follow come from PMC11013252, “Exploration of the Antibacterial and Anti-Inflammatory Activity of a Novel Antimicrobial Peptide Brevinin-1BW” (Molecules, 2024).

For the molecule `CC[C@H](C)[C@@H]1NC(=O)[C@H](CCCCN)NC(=O)[C@@H](NC(=O)[C@H](Cc2ccccc2)NC(=O)[C@@H](NC(=O)[C@@H](NC(=O)[C@@H]2CCCN2C(=O)[C@H](CC(C)C)NC(=O)[C@H](Cc2ccccc2)NC(=O)[C@H](CO)NC(=O)[C@H](C)NC(=O)[C@H](C)NC(=O)[C@H](CC(C)C)NC(=O)CNC(=O)[C@H](C)NC(=O)[C@H](CC(C)C)NC(=O)[C@H](CC(C)C)NC(=O)[C@@H]2CCCN2C(=O)[C@H](CC(C)C)NC(=O)[C@@H](N)Cc2ccccc2)[C@@H](C)O)[C@@H](C)CC)CSSC[C@@H](C(=O)O)NC(=O)[C@H](CCCCN)NC(=O)[C@H](CCCNC(=N)N)NC(=O)[C@H](CO)NC1=O` [Brevinin-1BW] (H-FLPLLAGLAASFLPTIFCKISRKC-OH; disulfide 18-24), the MBC in [1] was more than 100 µg/mL; in experiment [2], 12.5 µg/mL (≈ 4.79 µM); in [3] it was more than 100 µg/mL. The figures for the MIC in [1], in [2] and in experiment [3] were 100 µg/mL (≈ 38.3 µM), 6.25 µg/mL (≈ 2.4 µM) and more than 100 µg/mL, respectively. In addition, the ABTS radical scavenging entry in “ABTS radical scavenging” is on record as “less than 20%”. The “decrease of TNF-α release” value in the experiment on TNF-α was determined as 87.31%. The “decrease of IL-1β release” value with IL-1β stood at 91.46%. In the experiment with IL-6, the “decrease of IL-6 release” value is 77.82%. Moreover, the “MIC after temperature treatment” value with S. aureus (ATCC 25923) was 6.25 µg/mL (≈ 2.4 µM). Moreover, the “MIC after pH treatment” value against S. aureus (ATCC 25923) (pH 2) and in the experiment with S. aureus (ATCC 25923) (pH 12) was 6.25 µg/mL throughout. The “decrease of IL-1β mRNA expression level” value in the experiment on IL-1β mRNA worked out at 95.5%. Moreover, the “decrease of TNF-α mRNA expression level” value in the experiment on TNF-α mRNA worked out at 86.94%. The “decrease of IL-6 mRNA expression level” value in the experiment on IL-6 mRNA is listed as 93.72%. In addition, the “decrease of iNOS mRNA expression level” value in the experiment on iNOS mRNA was determined as 81.37%.
